Data reported in publication PMC12209990, “Effect of Cytochrome P450 3A Inhibition and Induction by Itraconazole and Rifampin on Tazemetostat Pharmacokinetics in Patients With Advanced Malignancies” (Clinical Pharmacology in Drug Development, 2025).

Experiments:
[1] = design: method as in PMID 29473431, PMID 38520556, PMID 33492746; conditions: doses of 200‐1600 mg twice daily; cited from earlier work
[2] = Safety (TEAEs) Part 2: tazemetostat coadministered with rifampin
Method: Part 2 of the study evaluated the DDI between tazemetostat and rifampin. On the mornings of Days 1 and 15, patients received a single dose of tazemetostat 800 mg orally. On Days 3‐14, patients received tazemetostat 800 mg twice daily. On Days 17‐23, patients received tazemetostat 800 mg twice daily, coadministered in the morning with a single dose of rifampin 600 mg orally. On the morning of Day 24, patients received a single dose of tazemetostat 800 mg coadministered with rifampin 600 mg. On the morning of Day 25, patients received rifampin 600 mg (Figure 1B). Throughout Part 2, administration of rifampin occurred 1 hour before a meal.
(§1) Safety was assessed by monitoring treatment‐emergent adverse events (TEAEs) and vital signs, electrocardiography, and clinical laboratory tests. TEAEs were defined as adverse events that started or worsened in severity on or after the date of the first dose of the study drug through 30 days after the last dose. Treatment‐related TEAEs were summarized by each study drug for both study parts. Adverse events were coded using the Medical Dictionary for Regulatory Activities Version 23.1 and graded per Common Terminology Criteria for Adverse Events Version 5.0.

CYP3A = test system: CYP3A; design: method as in PMID 29473431, PMID 38520556, PMID 33492746; conditions: in vitro; cited from earlier work
[3] = Safety (TEAEs) Part 1: tazemetostat coadministered with itraconazole
Method: Part 1 of the study evaluated the DDI between tazemetostat and itraconazole. On the mornings of Days 1 and 15, patients received a single dose of tazemetostat 400 mg orally. On Days 3‐14, patients received tazemetostat 400 mg twice daily (morning and evening). On Days 18‐20, patients received itraconazole 200 mg orally once daily in the morning. On Days 21‐35, tazemetostat 400 mg twice daily was coadministered in the morning with a single dose of itraconazole 200 mg. On Day 36, patients received a single dose of tazemetostat 400 mg coadministered in the morning with a single dose of itraconazole 200 mg. On Days 37 and 38, patients received a single dose of itraconazole 200 mg (Figure 1A). Throughout Part 1, administration of itraconazole occurred 1 hour after a meal.
as §1

SMILES: CCN(c1cc(-c2ccc(CN3CCOCC3)cc2)cc(C(=O)NCc2c(C)cc(C)[nH]c2=O)c1C)C1CCOCC1 [Tazemetostat]
- dose proportionality of systemic exposure [1]: approximately dose proportional
- Deaths resulting from TEAEs ([2]; Part 2): no deaths
- Any TEAE Grade 3 or 4, patients ([2]; human, in vivo): 13 (61.9) n (%)
- Any TEAE leading to dose reduction, patients ([2]; human, in vivo): 2 (9.5) n (%)
- Any TEAE leading to study drug discontinuation, patients ([2]; human, in vivo): 0 n (%)
- Any TEAE leading to study drug interruption, patients ([2]; human, in vivo): 7 (33.3) n (%)
- Any TEAE, patients ([2]; human, in vivo): 21 (100.0) n (%)
- Any TESAE, patients ([2]; human, in vivo): 9 (42.9) n (%)
- Any treatment-related TEAE Grade 3 or 4, patients ([2]; human, in vivo): 7 (33.3) n (%)
- Any treatment-related TESAE, patients ([2]; human, in vivo): 1 (4.8) n (%)
- Grade 3/4 TEAE decreased lymphocyte count ([2]; human, in vivo): 9.5%
- TEAE anemia, frequency ([2]; human, in vivo): 23.8%
- TEAE constipation, frequency ([2]; human, in vivo): 23.8%
- TEAE cough, frequency ([2]; human, in vivo): 28.6%
- TEAE diarrhea, frequency ([2]; human, in vivo): 33.3%
- TEAE fatigue, frequency ([2]; human, in vivo): 42.9%
- TEAE nausea, frequency ([2]; human, in vivo): 23.8%
- Tazemetostat‐related Grade 3/4 TEAE acute kidney injury ([2]; human, in vivo): 4.8%
- Tazemetostat‐related Grade 3/4 TEAE alanine aminotransferase increased ([2]; human, in vivo): 4.8%
- Tazemetostat‐related Grade 3/4 TEAE anemia ([2]; human, in vivo): 9.5%
- Tazemetostat‐related Grade 3/4 TEAE aspartate aminotransferase ([2]; human, in vivo): 4.8%
- Tazemetostat‐related Grade 3/4 TEAE diarrhea ([2]; human, in vivo): 4.8%
- Tazemetostat‐related Grade 3/4 TEAE syncope ([2]; human, in vivo): 4.8%
- Treatment-related TEAE Grade 3 or 4, related to the named study drug, patients ([2]; human, in vivo): 7 (33.3) n (%)
- Treatment-related TEAEs, related to the named study drug, patients ([2]; human, in vivo): 16 (76.2) n (%)
- Treatment-related TESAE, related to the named study drug, patients ([2]; human, in vivo): 1 (4.8) n (%)
- Any TEAE, patients ([2]; in vivo): all patients
- metabolism by CYP3A (CYP3A): mainly metabolized by cytochrome P450 (CYP), family 3, subfamily A (CYP3A)
- Deaths due to serious TEAEs ([3]; Part 1, within 30 days following the last dose, tazemetostat with itraconazole, neither considered treatment related): Two deaths
- Any TEAE Grade 3 or 4, patients ([3]; human, in vivo): 11 (52.4) n (%)
- Any TEAE leading to dose reduction, patients ([3]; human, in vivo): 0 n (%)
- Any TEAE leading to study drug discontinuation, patients ([3]; human, in vivo): 1 (4.8) n (%)
- Any TEAE leading to study drug interruption, patients ([3]; human, in vivo): 9 (42.9) n (%)
- Any TESAE, patients ([3]; human, in vivo): 8 (38.1) n (%)
- Any treatment-related TEAE Grade 3 or 4, patients ([3]; human, in vivo): 2 (9.5) n (%)
- Any treatment-related TESAE, patients ([3]; human, in vivo): 0 n (%)
- TEAE anemia, frequency ([3]; human, in vivo): 28.6%
- TEAE constipation, frequency ([3]; human, in vivo): 23.8%
- TEAE decreased appetite, frequency ([3]; human, in vivo): 33%
- TEAE dyspnea, frequency ([3]; human, in vivo): 33%
- TEAE fatigue, frequency ([3]; human, in vivo): 28.6%
- TEAE nausea, frequency ([3]; human, in vivo): 28.6%
- Treatment-related TEAE Grade 3 or 4, related to the named study drug, patients ([3]; human, in vivo): 2 (9.5) n (%)
- Treatment-related TEAEs, related to the named study drug, patients ([3]; human, in vivo): 12 (57.1) n (%)
- Treatment-related TESAE, related to the named study drug, patients ([3]; human, in vivo): 0 n (%)
- Treatment‐related Grade 3/4 TEAE anemia ([3]; human, in vivo): 9.5%
- Treatment‐related Grade 3/4 TEAE hyponatremia ([3]; human, in vivo): 4.8%
